Reference: patent US12410179B2, “Modulators of TNF alpha activity and uses thereof” (RayThera, Inc., priority 2023, dated 2025)

Molecular target: TNFα (Homo sapiens, UniProt P01375)
Assay: HEK-Blue hTNFα reporter assay
Assay type: cell-based
Design: purchased R&D biosystem (R&D Systems) 210-TA-020/CF
Details: HEK-Blue hTNFα reporter cells, SEAP readout; read-out: IC50 Range
Outline: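 Compounds preincubated 1 h at 37 °C with recombinant hTNFα ([…]), then added to HEK293 NF-κB-SEAP reporter cells, 10000 cells/well, 24 h at 37 °C. SEAP read by QUANTI-Blue at OD620; % inhibition versus stimulated and unstimulated controls, IC50 by 4-parameter fit.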

TNFα, sequence (P01375 77-233 limits assumed): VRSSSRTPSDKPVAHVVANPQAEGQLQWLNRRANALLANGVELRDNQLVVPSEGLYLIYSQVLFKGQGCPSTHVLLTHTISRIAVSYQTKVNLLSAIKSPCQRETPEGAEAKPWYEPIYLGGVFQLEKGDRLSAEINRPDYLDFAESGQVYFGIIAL

`[2H]C([2H])([2H])N1C(=O)c2cccc(OC(F)F)c2[C@H]2C[C@@H]1c1nn3ccc(-c4cnc(C5(N)CC5)cn4)cc3c12` [Example 266] and `[2H]C([2H])([2H])N1C(=O)c2cccc(OC(F)F)c2[C@H]2C[C@@H]1c1nn3ccc(-c4cnc(N5CC(C)(N)C5)nc4)cc3c12` [Example 291] cannot be ordered by IC50: under 25 nM for the first, under 25 nM for the second.

`[2H]C([2H])([2H])N1C(=O)c2cccc(OC(F)F)c2[C@H]2C[C@@H]1c1nn3cc(F)c(-c4cnc([C@]5(N)C[C@@](C)(O)C5)nc4)cc3c12` [Example 267] and `[2H]C([2H])([2H])N1C(=O)c2cccc(OC(F)F)c2[C@H]2C[C@@H]1c1nn3cc(F)c(-c4cnc([C@]5(N)C[C@@](C)(CO)C5)nc4)cc3c12` [Example 270] cannot be ordered by IC50: under 25 nM for the first, under 25 nM for the second.

`[2H]C([2H])([2H])N1C(=O)c2cccc(OC(F)F)c2[C@H]2C[C@@H]1c1nn3cc(F)c(-c4cnc([C@]5(N)C[C@@](C)(CO)C5)c(F)c4)nc3c12` [Example 268] and `[2H]C([2H])([2H])N1C(=O)c2cccc(OC(F)F)c2[C@H]2C[C@@H]1c1nn3cc(F)c(-c4cnc([C@]5(N)C[C@@](C)(CO)C5)nc4)nc3c12` [Example 274] cannot be ordered by IC50: under 25 nM for the first, under 25 nM for the second.

`[2H]C([2H])([2H])N1C(=O)c2cccc(OC(F)F)c2[C@H]2C[C@@H]1c1nn3ccc(-c4cnc([C@]5(N)C[C@@](C)(CO)C5)nc4)cc3c12` [Example 269] and `[2H]C([2H])([2H])N1C(=O)c2cccc(OC(F)F)c2[C@H]2C[C@@H]1c1nn3ccc(-c4cnc([C@]5(C#N)C[C@@](C)(N)C5)nc4)cc3c12` [Example 279] cannot be ordered by IC50: under 25 nM for the first, under 25 nM for the second.

`[2H]C([2H])([2H])N1C(=O)c2cccc(OC(F)F)c2[C@H]2C[C@@H]1c1nn3ccc(-c4cnc([C@]5(O)C[C@@](C)(C#N)C5)nc4)nc3c12` [Example 271] and `[2H]C([2H])([2H])N1C(=O)c2cccc(OC(F)F)c2[C@H]2C[C@@H]1c1nn3ccc(-c4cnc([C@]5(O)C[C@](C)(C#N)C5)nc4)nc3c12` [Example 272] cannot be ordered by IC50: under 25 nM for the first, under 25 nM for the second.

`[2H]C([2H])([2H])N1C(=O)c2cccc(OC(F)F)c2[C@H]2C[C@@H]1c1nn3cnc(-c4cnc([C@]5(O)C[C@](C)(C#N)C5)nc4)cc3c12` [Example 273] and `[2H]C([2H])([2H])N1C(=O)c2cccc(OC(F)F)c2[C@H]2C[C@@H]1c1nn3cc(F)c(-c4cnc([C@]5(O)C[C@@](C)(N)C5)nc4)cc3c12` [Example 284] cannot be ordered by IC50: under 25 nM for the first, under 25 nM for the second.

`Cc1nc(C2(N)CCC2)ncc1-c1ccn2nc3c(c2n1)[C@@H]1C[C@H]3NC(=O)c2cccc(OC(F)F)c21` [Example 275] and `[2H]C([2H])([2H])N1C(=O)c2cccc(OC(F)F)c2[C@H]2C[C@@H]1c1nn3ccc(-c4cnc([C@]5(N)C[C@@](C)(O)C5)nc4C)nc3c12` [Example 285] cannot be ordered by IC50: under 25 nM for the first, under 25 nM for the second.

First: [2H]C([2H])([2H])N1C(=O)c2cccc(OC(F)F)c2[C@H]2C[C@@H]1c1nn3ccc(-c4cnc([C@@H](N)C5CC5)nc4)nc3c12 [Example 276]
Second: [2H]C([2H])([2H])N1C(=O)c2cccc(OC(F)F)c2[C@H]2C[C@@H]1c1nn3ccc(-c4cnc([C@H](N)C5CC5)nc4)nc3c12 [Example 277]
The IC50 of the first is higher: 25 to 100 nM for the first, under 25 nM for the second. The second is the more potent here.

`[2H]C([2H])([2H])N1C(=O)c2cccc(OC(F)F)c2[C@H]2C[C@@H]1c1nn3ccc(-c4cnc(C5(O)CN(C)C5)nc4)cc3c12` [Example 278] and `[2H]C([2H])([2H])N1C(=O)c2cccc(OC(F)F)c2[C@H]2C[C@@H]1c1nn3ccc(-c4cnc([C@]5(C#N)C[C@](C)(N)C5)nc4)cc3c12` [Example 280] cannot be ordered by IC50: under 25 nM for the first, under 25 nM for the second.

`[2H]C([2H])([2H])N1C(=O)c2cccc(OC(F)F)c2[C@H]2C[C@@H]1c1nn3ccc(-c4cnc([C@]5(N)C[C@@](C)(O)C5)nc4C)cc3c12` [Example 281] and `[2H]C([2H])([2H])N1C(=O)c2cccc(OC(F)F)c2[C@H]2C[C@@H]1c1nn3ccc(-c4cnc([C@]5(C#N)C[C@@](C)(N)C5)c(F)c4)cc3c12` [Example 292] cannot be ordered by IC50: under 25 nM for the first, under 25 nM for the second.

`[2H]C([2H])([2H])N1C(=O)c2ccc(F)c(OC(F)F)c2[C@H]2C[C@@H]1c1nn3ccc(-c4cnc(C5(N)CCC5)nc4)nc3c12` [Example 282] and `[2H]C([2H])([2H])N1C(=O)c2ccc(F)c(OC(F)F)c2[C@H]2C[C@@H]1c1nn3ccc(-c4cnc([C@]5(N)C[C@@](C)(O)C5)nc4)nc3c12` [Example 288] cannot be ordered by IC50: under 25 nM for the first, under 25 nM for the second.

`O=C1N[C@@H]2C[C@H](c3c(OC(F)F)cccc31)c1c2nn2ccc(C3=CCN(C(=O)O[C@H]4C[C@@H](O)C4)CC3)cc12` [Example 283] and `[2H]C([2H])([2H])N1C(=O)c2cccc(OC(F)F)c2[C@H]2C[C@@H]1c1nn3ccc(-c4cnc([C@]5(C#N)C[C@](C)(N)C5)c(F)c4)cc3c12` [Example 293] cannot be ordered by IC50: under 25 nM for the first, under 25 nM for the second.

`[2H]C([2H])([2H])N1C(=O)c2cccc(OC(F)F)c2[C@H]2C[C@@H]1c1nn3ccc(-c4cnc(C(C)(C)N)nc4)nc3c12` [Example 286] and `CN1C(=O)c2cccc(OC(F)F)c2[C@H]2C[C@@H]1c1nn3ccc(-c4cnc(C(C)(C)N)nc4)nc3c12` [Example 295] cannot be ordered by IC50: under 25 nM for the first, under 25 nM for the second.

`[2H]C([2H])([2H])N1C(=O)c2cccc(OC(F)F)c2[C@H]2C[C@@H]1c1nn3cc(F)c(-c4cnc(C(C)(C)N)nc4)nc3c12` [Example 287] and `[2H]C([2H])([2H])N1C(=O)c2cccc(OC(F)F)c2[C@H]2C[C@@H]1c1nn3cc(C)c(-c4cnc(C(C)(C)N)nc4)nc3c12` [Example 296] cannot be ordered by IC50: under 25 nM for the first, under 25 nM for the second.

`[2H]C([2H])([2H])N1C(=O)c2ccc(F)c(OC(F)F)c2[C@H]2C[C@@H]1c1nn3ccc(-c4cnc([C@]5(N)C[C@@](C)(O)C5)c(F)c4)nc3c12` [Example 289] and `[2H]C([2H])([2H])N1C(=O)c2ccc(F)c(OC(F)F)c2[C@H]2C[C@@H]1c1nn3ccc(-c4cnc(C(C)(C)N)nc4)nc3c12` [Example 297] cannot be ordered by IC50: under 25 nM for the first, under 25 nM for the second.

`[2H]C([2H])([2H])N1C(=O)c2cccc(OC(F)F)c2[C@H]2C[C@@H]1c1nn3cc(F)c(-c4cnc([C@]5(N)C[C@H](C#N)C5)nc4)cc3c12` [Example 290] and `[2H]C([2H])([2H])N1C(=O)c2cccc(OC(F)F)c2[C@H]2C[C@@H]1c1nn3cc(F)c(-c4cnc(C(C)(C)N)nc4)cc3c12` [Example 294] cannot be ordered by IC50: under 25 nM for the first, under 25 nM for the second.

`[2H]C([2H])([2H])N1C(=O)c2cccc(OC(F)F)c2[C@H]2C[C@@H]1c1nn3cnc(-c4cnc(C(C)(C)N)nc4)cc3c12` [Example 298] and `[2H]C([2H])([2H])N1C(=O)c2cccc(OC(F)F)c2[C@H]2C[C@@H]1c1nn3cc(C)c(-c4cnc(C(C)(C)N)nc4)cc3c12` [Example 300] cannot be ordered by IC50: under 25 nM for the first, under 25 nM for the second.

Compared with `CN1C(=O)c2cccc(C(F)F)c2[C@H]2C[C@@H]1c1nn3ccc(-c4cnc(C5(N)CCC5)nc4)cc3c12` [Example 299], `[2H]C([2H])([2H])N1C(=O)c2cccc(C)c2[C@H]2C[C@@H]1c1nn3ccc(-c4cnc(C5(N)CCC5)nc4)cc3c12` [Example 302, (7R,14R)-12-(2-(1-aminocyclobutyl)pyrimidin-5-yl)-1-methyl-6-(methyl-d3)-6,7-dihydro-7,14-methanobenzo[c]pyrido[1′,2′:1,5]pyrazolo[4,3-f]azocin-5 (14H)-one] is higher in IC50: under 25 nM for the first, 25 to 100 nM for the second.

First: [2H]C([2H])([2H])N1C(=O)c2cccc(C#N)c2[C@H]2C[C@@H]1c1nn3ccc(-c4cnc([C@]5(N)C[C@@](C)(C#N)C5)nc4)nc3c12 [Example 301, (7R,14R)-12-(2-((1s,3S)-1-amino-3-cyano-3-methylcyclobutyl)pyrimidin-5-yl)-6-(methyl-d3)-5-oxo-5,6,7,14-tetrahydro-7,14-methanobenzo[c]pyrimido[1′,2′:1,5]pyrazolo[4,3-f]azocine-1-carbonitrile]
Second: [2H]C([2H])([2H])N1C(=O)c2cccc(C#N)c2[C@H]2C[C@@H]1c1nn3ccc(-c4cnc(C5(N)CCC5)nc4)nc3c12 [Example 310]
The IC50 of the first is lower: under 25 nM for the first, 25 to 100 nM for the second. The first is the more potent here.

`CN1C(=O)c2cccc(C#N)c2[C@H]2C[C@@H]1c1nn3ccc(-c4ccc(P(C)(C)=O)nc4)cc3c12` [Example 303] and `CN1C(=O)c2cccc(C3CC3)c2[C@H]2C[C@@H]1c1nn3ccc(-c4ccc(P(C)(C)=O)nc4)cc3c12` [Example 304] cannot be ordered by IC50: under 25 nM for the first, under 25 nM for the second.

`C#Cc1cccc2c1[C@H]1C[C@H](c3nn4ccc(-c5cnc([C@]6(O)C[C@@](C)(O)C6)nc5)cc4c31)N(C)C2=O` [Example 305] and `[2H]C([2H])([2H])N1C(=O)c2cccc(C#N)c2[C@H]2C[C@@H]1c1nn3ccc(-c4cnc([C@]5(N)C[C@@](C)(C#N)C5)nc4)cc3c12` [Example 308] cannot be ordered by IC50: under 25 nM for the first, under 25 nM for the second.

`[2H]C([2H])([2H])N1C(=O)c2cccc(C#N)c2[C@H]2C[C@@H]1c1nn3ccc(-c4cnc(C5(N)CCC5)nc4)cc3c12` [Example 306] and `[2H]C([2H])([2H])N1C(=O)c2cccc(C3CC3)c2[C@H]2C[C@@H]1c1nn3ccc(-c4cnc(C5(N)CCC5)nc4)cc3c12` [Example 313] cannot be ordered by IC50: under 25 nM for the first, under 25 nM for the second.

First: [2H]C([2H])([2H])N1C(=O)c2cccc(C#N)c2[C@H]2C[C@@H]1c1nn3cc(F)c(-c4cnc(C5(N)CCC5)nc4)cc3c12 [Example 307]
Second: [2H]C([2H])([2H])N1C(=O)c2cccc(C#N)c2[C@H]2C[C@@H]1c1nn3cc(F)c(-c4cnc([C@]5(N)C[C@@](C)(C#N)C5)nc4)cc3c12 [Example 312]
The IC50 of the first is higher: 25 to 100 nM for the first, under 25 nM for the second. The second is the more potent here.

First: [2H]C([2H])([2H])N1C(=O)c2cccc(C#N)c2[C@H]2C[C@@H]1c1nn3ccc(-c4cnc([C@]5(N)C[C@@](C)(O)C5)c(F)c4)cc3c12 [Example 309]
Second: [2H]C([2H])([2H])N1C(=O)c2cccc(C#N)c2[C@H]2C[C@@H]1c1nn3cc(F)c(-c4cnc([C@]5(N)C[C@@](C)(C#N)C5)nc4)nc3c12 [Example 311]
The IC50 of the first is lower: under 25 nM for the first, 25 to 100 nM for the second.
